Measured values as given in PubChem BioAssay AID1259411 (Chemical Carcinogenesis Research Information System (CCRIS), 2018).
Calls of active or inactive are those of the source. How the calls were made is not given here.

System: rodent carcinogenicity bioassays, tumor incidence
Assay: CCRIS carcinogenicity studies
Summary of the method: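 NCI-built, expert-reviewed records of carcinogenicity and related test outcomes (mutagenicity, tumor promotion/inhibition) compiled from published and report sources, historical span 1985-2011, not updated.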

With `CC(=O)OC/N=[N+](/C)[O-]` the carcinogen call (Species: FISH, Strain/Sex: MOSQUITOFISH/MALE, FEMALE, Route: IMMERSION, Dose: 0, 10 MG/L IN WATER FOR 2 HR EXPOSURE (STUDY DURATION: 40 WK), Tumor Site: Type of Lesion: LIVER: TUMOR) was “active; positive”, the carcinogen call (Species: MONKEY, Strain/Sex: AFRICAN GREEN/MALE,FEMALE, Route: INTRAPERITONEAL, Dose: 1.94-9.66 G TOTAL DOSE, 1/WK FOR UP TO 89 MO, Tumor Site: Type of Lesion: LIVER: HEPATOCELLULAR CARCINOMA, HEMANGIOSARCOMA, KIDNEY: RENAL CELL CARCINOMA, ESOPHAGUS: SQUAMOUS CELL CARCINOMA, CECU, Tumor Site: Type of Lesion: LIVER: HEPATOCELLULAR CARCINOMA, HEMANGIOSARCOMA, KIDNEY: RENAL CELL CARCINOMA, ESOPHAGUS: SQUAMOUS CELL CARCINOMA, CECU) was “active; positive” and the carcinogen call (Species: MONKEY, Strain/Sex: CYNOMOLGUS/MALE,FEMALE, Route: INTRAPERITONEAL, Dose: 1.94-9.66 G TOTAL DOSE, 1/WK FOR UP TO 89 MO, Tumor Site: Type of Lesion: LIVER: HEPATOCELLULAR CARCINOMA, HEMANGIOSARCOMA, KIDNEY: RENAL CELL CARCINOMA, ESOPHAGUS: SQUAMOUS CELL CARCINOMA, CECU, Tumor Site: Type of Lesion: LIVER: HEPATOCELLULAR CARCINOMA, HEMANGIOSARCOMA, KIDNEY: RENAL CELL CARCINOMA, ESOPHAGUS: SQUAMOUS CELL CARCINOMA, CECU) was “active; positive”. The carcinogen call (Species: MONKEY, Strain/Sex: RHESUS/MALE,FEMALE, Route: INTRAPERITONEAL, Dose: 1.94-9.66 G TOTAL DOSE, 1/WK FOR UP TO 89 MO, Tumor Site: Type of Lesion: LIVER: HEPATOCELLULAR CARCINOMA, HEMANGIOSARCOMA, KIDNEY: RENAL CELL CARCINOMA, ESOPHAGUS: SQUAMOUS CELL CARCINOMA, CECU, Tumor Site: Type of Lesion: LIVER: HEPATOCELLULAR CARCINOMA, HEMANGIOSARCOMA, KIDNEY: RENAL CELL CARCINOMA, ESOPHAGUS: SQUAMOUS CELL CARCINOMA, CECU) was “active; positive”, the carcinogen call (Species: MOUSE, Route: SUBCUTANEOUS, Dose: 0.2-0.4 MG, SINGLE DOSE, Tumor Site: Type of Lesion: UNSPECIFIED: TUMOR) was “active; positive” and the carcinogen call (Species: MOUSE, Strain/Sex: BALB/FEMALE, Route: DERMAL, Dose: 0, 0.5 MG PAINTED ON ANAL REGION 3/WK FOR 24 WK (STUDY DURATION: 24 WK), Tumor Site: Type of Lesion: PERIANAL SEBACEOUS GLAND: SQUAMOUS CELL CARCINOMA, ADENOMA) was “active; positive”. The carcinogen call (Species: MOUSE, Strain/Sex: BALB/MALE, Route: DERMAL, Dose: 0, 0.5 MG PAINTED ON ANAL REGION 3/WK FOR 24 WK (STUDY DURATION: 30 WK), Tumor Site: Type of Lesion: PERIANAL SEBACEOUS GLAND: SQUAMOUS CELL CARCINOMA, BLOOD VESSELS: HEMANGIOMA OR HEMANGIOENDOTHELIOMA) was “active; positive”, the carcinogen call (Species: RAT, Route: INTRAPERITONEAL, SUBCUTANEOUS, Tumor Site: Type of Lesion: BILE DUCT, INTESTINES, KIDNEY, Tumor Site: Type of Lesion: BILE DUCT, INTESTINES, KIDNEY) was “active; positive” and the carcinogen call (Species: RAT, Route: INTRAVENOUS, ORAL, Tumor Site: Type of Lesion: INTESTINES, KIDNEY, LIVER, Tumor Site: Type of Lesion: INTESTINES, KIDNEY, LIVER) was “active; positive”. The carcinogen call (Species: RAT, Route: RECTAL, Tumor Site: Type of Lesion: INTESTINES, KIDNEY) was “active; positive”, the carcinogen call (Species: RAT, Route: SUBCUTANEOUS, Dose: 12.5 MG TOTAL DOSE, 4 DOSES OVER 3 WK, Tumor Site: Type of Lesion: INTESTINES: NEOPLASMS, BILE DUCT: ADENOMA) was “active; positive” and the carcinogen call (Species: RAT, Strain/Sex: DONRYU/MALE, Route: RECTAL, Dose: 1 MG, 1/D FOR 7-26 D, Tumor Site: Type of Lesion: INTESTINES (LARGE): ADENOCARCINOMA, KIDNEY: NEPHROBLASTOMA) was “active; positive”.

For `O=NN(c1ccccc1)c1ccccc1`, the carcinogen call (Species: MOUSE, Strain/Sex: B6C3F1/FEMALE, Route: ORAL, Dose: 0, 2315, 5741 PPM IN DIET, TWA, Dose: 0, 2315, 5741 PPM IN DIET, TWA) was “inactive; negative”, the carcinogen call (Species: MOUSE, Strain/Sex: B6C3F1/MALE, Route: ORAL, Dose: 0, 10000, 20000 PPM IN DIET, Dose: 0, 10000, 20000 PPM IN DIET) was “inactive; negative” and the carcinogen call (Species: RAT, Strain/Sex: F344/FEMALE, Route: ORAL, Dose: 0, 1000, 4000 PPM IN DIET, Dose: 0, 1000, 4000 PPM IN DIET, Tumor Site: Type of Lesion: URINARY BLADDER: TRANSITIONAL CELL CARCINOMA) was “active; positive”. The carcinogen call (Species: RAT, Strain/Sex: F344/MALE, Route: ORAL, Dose: 0, 1000, 4000 PPM IN DIET, Dose: 0, 1000, 4000 PPM IN DIET, Tumor Site: Type of Lesion: INTEGUMENTARY SYSTEM: FIBROMA, URINARY BLADDER: TRANSITIONAL CELL CARCINOMA) was “active; positive”.

`Clc1c2ccccc2cc2c1ccc1ccccc12` was tested, and the carcinogen call (Species: MOUSE, Strain/Sex: B6C3F1/MALE, Route: INTRAPERITONEAL, Dose: 0, 1600 NMOL (TOTAL DOSE) ADMINISTERED IN DOSES OF 1/7 WITHIN 24 HR OF BIRTH, 2/7 AT 8 DAYS OF AGE AND 4/7 AT 15 DAYS OF, Tumor Site: Type of Lesion: LIVER: ADENOMA, CARCINOMA) was “active; positive”.

With `O.O.O.O.O.[Cd+2].[Cd+2].[Cl-].[Cl-].[Cl-].[Cl-]` the carcinogen call (Species: HAMSTER, Strain/Sex: SYRIAN/FEMALE, Route: SUBCUTANEOUS, Dose: 0, 30, 40, 50 UMOL/KG ONCE ON THE FOURTH DAY OF THE ESTROUS CYCLE (STUDY DURATION: 78 WK), Dose: 0, 30, 40, 50 UMOL/KG ONCE ON THE FOURTH DAY OF THE ESTROUS CYCLE (STUDY DURATION: 78 WK)) was “inactive; negative”, the carcinogen call (Species: HAMSTER, Strain/Sex: SYRIAN/MALE, Route: SUBCUTANEOUS, Dose: 0, 20 UMOL/KG ONCE (STUDY DURATION: 104 WK), Tumor Site: Type of Lesion: ADRENAL GLAND: TUMOR) was “active; positive” and the carcinogen call (Species: MOUSE, Strain/Sex: C57/MALE, Route: SUBCUTANEOUS, Dose: 0, 20 UMOL/KG ONCE (STUDY DURATION: 104 WK)) was “inactive; negative”. The carcinogen call (Species: MOUSE, Strain/Sex: NFS/MALE, Route: SUBCUTANEOUS, Dose: 0, 20 UMOL/KG ONCE (STUDY DURATION: 104 WK), Tumor Site: Type of Lesion: LYMPHOID TISSUE: LYMPHOMA) was “active; positive”, the carcinogen call (Species: RAT, Strain/Sex: WISTAR/FEMALE, Route: ORAL, Dose: 0, 1, 3, 10, 50 PPM IN DIET FOR 104 WK (STUDY DURATION: 2 YR), Dose: 0, 1, 3, 10, 50 PPM IN DIET FOR 104 WK (STUDY DURATION: 2 YR)) was “inactive; negative” and the carcinogen call (Species: RAT, Strain/Sex: WISTAR/MALE, Route: ORAL, Dose: 0, 1, 3, 10, 50 PPM IN DIET FOR 104 WK (STUDY DURATION: 2 YR), Dose: 0, 1, 3, 10, 50 PPM IN DIET FOR 104 WK (STUDY DURATION: 2 YR)) was “inactive; negative”. For the same compound, the carcinogen call (Species: RAT, Strain/Sex: WISTAR/MALE, Route: ORAL, Dose: 0, 25, 50, 100, 200 PPM IN DIET FOR 77 WK TO RATS MAINTAINED ON ZINC ADEQUATE (60 PPM) DIET (STUDY DURATION: 79 WK), Dose: 0, 25, 50, 100, 200 PPM IN DIET FOR 77 WK TO RATS MAINTAINED ON ZINC ADEQUATE (60 PPM) DIET (STUDY DURATION: 79 WK), Tumor Site: Type of Lesion: HEMATOPOIETIC SYSTEM: LEUKEMIA, TESTIS: TUMOR) was “active; positive”, the carcinogen call (Species: RAT, Strain/Sex: WISTAR/MALE, Route: ORAL, Dose: 0, 25, 50, 100, 200 PPM IN DIET FOR 77 WK TO RATS MAINTAINED ON ZINC DEFICIENT (7 PPM) DIET (STUDY DURATION: 79 WK), Dose: 0, 25, 50, 100, 200 PPM IN DIET FOR 77 WK TO RATS MAINTAINED ON ZINC DEFICIENT (7 PPM) DIET (STUDY DURATION: 79 WK), Tumor Site: Type of Lesion: HEMATOPOIETIC SYSTEM: LEUKEMIA) was “active; positive” and the carcinogen call (Species: RAT, Strain/Sex: WISTAR/MALE, Route: SUBCUTANEOUS, Dose: 0, 5, 10, 30 UMOL ONCE ADMINISTERED TO RATS FED DIETS ADEQUATE (60 PPM) IN ZINC (STUDY DURATION: 92 WK), Dose: 0, 5, 10, 30 UMOL ONCE ADMINISTERED TO RATS FED DIETS ADEQUATE (60 PPM) IN ZINC (STUDY DURATION: 92 WK), Tumor Site: Type of Lesion: TESTES: ADENOMA) was “active; positive”. For the same compound, the carcinogen call (Species: RAT, Strain/Sex: WISTAR/MALE, Route: SUBCUTANEOUS, Dose: 0, 5, 10, 30 UMOL ONCE ADMINISTERED TO RATS FED DIETS DEFICIENT (7 PPM) IN ZINC (STUDY DURATION: 92 WK), Dose: 0, 5, 10, 30 UMOL ONCE ADMINISTERED TO RATS FED DIETS DEFICIENT (7 PPM) IN ZINC (STUDY DURATION: 92 WK), Tumor Site: Type of Lesion: TESTES: ADENOMA, INJECTION SITE: SARCOMA) was “active; positive”.
